Measurements from patent publication US12522596B2, “Compounds as GLP-1R agonists” (Terns Pharmaceuticals, Inc., priority 2021, dated 2026).

Columns and labels:
[1] = Metabolic stability in rat hepatocytes; type: in vitro ADME; settings: cryopreserved hepatocytes, 1 μM
Procedure: (§1) Test compounds were incubated in rat and human hepatocytes and stability was assessed from the substrate […] approach. Test compounds were dissolved in dimethyl sulfoxide (DMSO) to create a 10 mM Stock, and then further diluted to create a 1000× Working Stock of 1 mM with DMSO in 96-well plates for test compounds and the positive control (midazolam). Vials containing cryopreserved hepatocytes were removed from the liquid nitrogen tank and immediately immersed in a 37° C. water bath. The vials were shaken gently until the contents had thawed and were then immediately emptied into 48 mL of pre-warmed HT Medium in a 50 mL conical tube. Cells remaining in the vial were resuspended with 1.0 mL of pre-warmed HT Medium and added to the conical tube. The tube was capped and then gently inverted several times to resuspend the hepatocytes. The cell suspension was centrifuged at 50×g at room temperature for 5 minutes and the supernatant discarded. The cell pellet was loosened by gently swirling the centrifuge tube and was re-suspended in 4 mL of warm Dulbecco's Modified Eagle medium (DMEM). Cell density was determined by a cell counter by Nexcelom, and DMEM medium was added to obtain a target density of 1×10^6 cells/mL. The assay was carried out in 96-well microtiter plates. Test Compounds were incubated at 1 μM with 1×10^6 cells/mL hepatocytes in DMEM for 0, 30, 60, 120 and 240 minutes. The incubation was carried out with gentle shaking at 37° C. under a humid atmosphere of 95% air/5% CO2. The volume of the incubation mixture was 37 μL with a final 0.1% DMSO. At each of the time points, the incubation was stopped by adding 150 μL quenching solution (100% acetonitrile, 0.1% formic acid containing bucetin as an internal standard for positive ESI mode). Subsequently, the mixtures were vortexed for 20 min and centrifuged at 4,000 RPM at 10° C. The supernatant (80 μL) was transferred to a clean 96-well plate and analyzed by LC-MS/MS. Midazolam at 1 μM with a final 0.1% DMSO was included as a positive control to verify assay performance. The percent parent remaining, intrinsic and predicted hepatic clearance and t1/2 were calculated. All samples were analyzed by LC-MS/MS using an AB Sciex API 4000 instrument, coupled to a Shimadzu LC-20AD LC Pump system. Separation was achieved using a Waters Atlantis T3 dC18 reverse phase HPLC column (20 mm×2.1 mm) at a flow rate of 0.5 mL/min. The mobile phase consisted of 0.1% formic acid in water (solvent A) and 0.1% formic acid in 100% acetonitrile (solvent B). Elution conditions are detailed below.
(§2) The ion optics of each test compound were optimized for their declustering potential (DP), […] (CE), collision-cell exit potential (CXP) and used in a selected ion monitoring experiment in the positive ion mode. The peak area ratio of each test compound to internal standard was then evaluated for stability. The extent of metabolism was calculated based on the disappearance of the test compound, compared to its initial concentration. The initial rates of clearance of the test compound were calculated using the linear regression plot of semi-log % remaining of the compound versus time. The elimination rate constant (k) of the linear regression plot was then used to determine t1/2 and the intrinsic clearance (CLint) using the following formula, where Chepatocyte (million cells/mL) is the cell density of the incubation:
(§3) The predicted hepatic clearance (CLhep) was calculated using the well stirred method with the following formula with CLint(in vivo) normalized based on liver weight: […]
(§4) The relevant physiological parameters of liver weight, blood flow, and hepatocellularity for various species are listed below: […]

[2] = Metabolic stability in human hepatocytes; type: in vitro ADME; settings: cryopreserved hepatocytes; human hepatocytes, 1 μM
Procedure: as §1, §2, §3, §4

[3] = Caco-2 passive permeability and efflux ratio; type: in vitro ADME; settings: human; for Papp at 120 min, 5 μM: Caco-2, 5 μM, pH 7.4, 120 minutes; for efflux ratio at 120 min, 5 μM: pH 7.4, Caco-2, Papp (B-to-A)/Papp (A-to-B), read-out: Efflux Ratio (ER)
Procedure: Caco-2 cells (clone C2BBe1) were obtained from American Type Culture Collection (Manassas, VA). Cell monolayers were grown to confluence on collagen-coated, microporous membranes in 12-well assay plates. Details of the plates and their certification are shown below. The permeability assay buffer was Hanks' balanced salt solution containing 10 mM HEPES and 15 mM glucose at a pH of 7.4. The buffer in the receiver chamber also contained 1% bovine serum albumin. The dosing solution concentration was 5 μM of test article in the assay buffer. Cell monolayers were dosed on the apical side (A-to-B) or basolateral side (B-to-A) and incubated at 37° C. with 5% CO2 in a humidified incubator. Samples were taken from the donor and receiver chambers at 120 minutes. Each determination was performed in duplicate. The flux of lucifer yellow was also measured post-experimentally for each monolayer to ensure no damage was inflicted to the cell monolayers during the flux period. All samples were assayed by LC-MS/MS using electrospray ionization. The apparent permeability (Papp) and percent recovery were calculated as follows:
[formula] [formula] where, dCr/dt is the slope of the cumulative receiver concentration versus time in μM s^−1; Vr is the volume of the receiver compartment in cm^3; Vd is the volume of the donor compartment in cm^3; A is the area of the insert (1.13 cm^2 for 12-well); CA is the average of the nominal dosing concentration and the measured 120-minute donor concentration in μM; CN is the nominal concentration of the dosing solution in μM; Cr^final is the cumulative receiver concentration in μM at the end of the incubation period; Cd^final is the concentration of the donor in μM at the end of the incubation period. Efflux ratio (ER) is defined as Papp (B-to-A)/Papp (A-to-B).

[4] = Rat pharmacokinetics, oral dosing; type: in vivo, Sprague-Dawley rats; settings: rat; for AUC(0-t) / Cmax / half-life: male, Sprague-Dawley, plasma, po, 3 mg/kg, rat plasma
Procedure: Oral dosing: Compounds were formulated at 0.3 mg/mL or 0.6 mg/mL in a solution comprising 5% polyethylene glycol 400 and 95% (12% (w/v) sulfobutyl-β-cyclodextrin in water) (v/v). Formulated compounds were administered to male, 7-11 week old Sprague-Dawley rats by oral gavage at a dose of 3 mg/kg.
Sample collection: Blood collections of about 0.2 mL per time point were performed from jugular vein or other suitable site of each animal, into pre-chilled commercial EDTA-K2 tubes and placed on wet ice until centrifugation. Blood samples were processed for plasma by centrifugation at approximately 4° C., 3,200 g for 10 min. Plasma was collected and transferred into pre-labeled 96 well plate or polypropylene tubes, quick frozen over dry ice and kept at −60° C. or lower until LC-MS/MS analysis.
Data analysis: Plasma concentration versus time data was plotted in graph and analyzed by non-compartmental approaches using the Phoenix WinNonlin 6.3 software program. Related PK parameters were calculated according to dosing route, e.g., CL, Vdss and C0 for intravenous administration, Cmax, Tmax or % F for extravascular administration, and T1/2, AUC(0-t), AUC(0-inf), MRT(0-t), MRT(0-inf) for all routes.

[5] = tested on: rat hepatocytes; experiment: Metabolic stability in rat hepatocytes; type: in vitro ADME
Procedure: as §1, §2, §3, §4

Row | Structure (SMILES) | CLint scaled at 1 μM [1] [mL/min/kg] | half-life at 1 μM [1] [h] | CLint scaled at 1 μM [2] [mL/min/kg] | half-life at 1 μM [2] [h] | Papp at 120 min, 5 μM [3] [×10⁻⁶ cm/s] | AUC(0-t) ([4]; 3 mg/kg PO (0.3 mg/mL)) [ng·h/mL] | Cmax ([4]; 3 mg/kg PO (0.3 mg/mL)) [ng/mL] | half-life ([4]; 3 mg/kg PO (0.3 mg/mL)) [h] | AUC(0-t) ([4]; 3 mg/kg PO (0.6 mg/mL)) [ng·h/mL] | Cmax ([4]; 3 mg/kg PO (0.6 mg/mL)) [ng/mL] | half-life ([4]; 3 mg/kg PO (0.6 mg/mL)) [h] | CLint relative to reference standard [5] | Half-life relative to reference [5] | efflux ratio at 120 min, 5 μM [3] | PK properties relative to Reference Compound A ([4]; dosed orally) | higher AUC relative to Reference Compound A ([4]; oral administration)
1 | N#Cc1ccc(COc2cccc(C3CCN(Cc4nc5ccc(C(=O)O)cc5n4C[C@@H]4CCO4)CC3)n2)c(F)c1 [Reference Compound A, reference compound] | 48.2 ± 1.33 | 1.21 ± 0.0425 | 7.18 ± 0.45 | 5.79 ± 0.379 | 15.5 | 60.6 ± 9.01 | 37.7 ± 8.09 | 2 ± 1.07 | 121 ± 36.9 | 102 ± 57 | 1.68 ± 0.44 | – | – | – | – | –
2 | CC1(c2ccc(C#N)cc2F)Oc2cccc(C3CCN(Cc4nc5ccc(C(=O)O)cc5n4Cc4cncs4)CC3)c2O1 (stereo not shown) [Compound 31] | 30.2 ± 1.5 | 1.83 ± 0.0907 | 17.5 ± 1.33 | 2.29 ± 0.174 | 16.8 | – | – | – | – | – | – | significantly lower | significantly higher | 1.31 | – | –
3 | N#Cc1ccc(COc2ccnc(C3CCN(Cc4nc5ccc(C(=O)O)cc5n4Cc4cncs4)CC3)n2)c(F)c1 [Compound 20] | 38.9 ± 1.14 | 1.49 ± 0.044 | 10.6 ± 0.66 | 3.82 ± 0.241 | 2.82 | – | – | – | – | – | – | significantly lower | significantly higher | 9.77 | – | –
4 | N#Cc1ccc(COc2cccc(N3CCN(Cc4nc5ccc(C(=O)O)cc5n4Cc4cncs4)CC3)n2)c(F)c1 [Compound 30] | 32.5 ± 0.73 | 1.71 ± 0.0383 | 7.18 ± 0.31 | 5.58 ± 0.244 | 9.41 | – | – | – | – | – | – | significantly lower | significantly higher | 2.14 | – | –
5 | Cc1ncsc1Cn1c(CN2CCC(c3cccc(OCc4ccc(C#N)cc4F)n3)CC2)nc2ccc(C(=O)O)cc21 [Compound 4] | 36 ± 1.36 | 1.62 ± 0.0477 | 24.3 ± 0.74 | 1.66 ± 0.0508 | 49.9 | 28.3 ± 21.7 | 21.6 ± 9.8 | 0.96 ± 0.33 | – | – | – | significantly lower | significantly higher | 0.975 | – | –
6 | N#Cc1ccc(COc2cccc(C3CCN(Cc4nc5ccc(C(=O)O)cc5n4Cc4cncs4)CC3)n2)c(F)c1 [Compound 2] | 42.6 ± 2.46 | 1.32 ± 0.083 | 15.5 ± 0.82 | 2.61 ± 0.154 | 31.5 | 384 ± 182 | 117 ± 61 | 3.3 ± 0.44 | 525 ± 138 | 491 ± 256 | 2.66 ± 1.74 | not significantly different | – | 1.66 | significantly enhanced PK properties | 4-6 fold
